Measurements reported in PubChem BioAssay (NCI).
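GI50 = concentration required for 50% inhibition of growth. TGI marks complete inhibition of growth.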

How the values were obtained:
Assay in all cases: NCI tumour cell line growth inhibition, 384-well format
NCI-H522 lung = tested on: NCI-H522 lung
ACHN renal = tested on: ACHN renal
HL-60(TB) leukemia = tested on: HL-60(TB) leukemia
SF-295 CNS = tested on: SF-295 CNS
SF-268 CNS = tested on: SF-268 CNS
SR leukemia = tested on: SR leukemia
HT29 colon = tested on: HT29 colon
EKVX NSCLC = tested on: EKVX NSCLC
U251 glioblastoma = tested on: U251 glioblastoma
HCT-15 colon = tested on: HCT-15 colon
SNB-19 CNS = tested on: SNB-19 CNS
IGROV1 ovarian = tested on: IGROV1 ovarian
T-47D breast = tested on: T-47D breast
MDA-MB-435 melanoma = tested on: MDA-MB-435 melanoma
SK-MEL-28 melanoma = tested on: SK-MEL-28 melanoma
HOP-62 NSCLC = tested on: HOP-62 NSCLC
TK-10 renal = tested on: TK-10 renal
CAKI-1 renal = tested on: CAKI-1 renal
RXF 393 renal = tested on: RXF 393 renal
MDA-MB-468 breast = tested on: MDA-MB-468 breast
SNB-75 CNS = tested on: SNB-75 CNS
UACC-257 melanoma = tested on: UACC-257 melanoma
DU-145 prostate = tested on: DU-145 prostate
OVCAR-3 ovarian = tested on: OVCAR-3 ovarian
HCT-116 colon = tested on: HCT-116 colon
SK-MEL-5 melanoma = tested on: SK-MEL-5 melanoma
MCF7 breast = tested on: MCF7 breast
NCI-H460 NSCLC = tested on: NCI-H460 NSCLC
BT-549 breast = tested on: BT-549 breast
SF-539 CNS = tested on: SF-539 CNS
MDA-MB-231 breast = tested on: MDA-MB-231 breast
NCI-H226 lung = tested on: NCI-H226 lung
HS 578T breast = tested on: HS 578T breast
NCI-H23 lung = tested on: NCI-H23 lung
SK-OV-3 ovarian = tested on: SK-OV-3 ovarian
786-0 renal = tested on: 786-0 renal
A498 renal = tested on: A498 renal
PC-3 prostate = tested on: PC-3 prostate
OVCAR-5 ovarian = tested on: OVCAR-5 ovarian
HOP-92 NSCLC = tested on: HOP-92 NSCLC
SK-MEL-2 melanoma = tested on: SK-MEL-2 melanoma
OVCAR-4 ovarian = tested on: OVCAR-4 ovarian
UACC-62 melanoma = tested on: UACC-62 melanoma
SN12C renal = tested on: SN12C renal
A549 NSCLC = tested on: A549 NSCLC
MOLT-4 leukemia = tested on: MOLT-4 leukemia
UO-31 renal = tested on: UO-31 renal
OVCAR-8 ovarian = tested on: OVCAR-8 ovarian
SW-620 colon = tested on: SW-620 colon
K-562 leukemia = tested on: K-562 leukemia
NCI-H322M lung = tested on: NCI-H322M lung
MALME-3M melanoma = tested on: MALME-3M melanoma
COLO 205 colon = tested on: COLO 205 colon
KM12 colon = tested on: KM12 colon
M14 melanoma = tested on: M14 melanoma

Cn1cc(-c2ccc3c(c2)ncn3-c2cc(NS(=O)(=O)C3CC3)cc(-c3ccc(F)cc3F)c2)cn1
GI50 (NCI-H522 lung): 1.8 µM
TGI (NCI-H522 lung): 6.87 µM
GI50 (ACHN renal): 2.5 µM
TGI (ACHN renal): 13.2 µM
GI50 (HL-60(TB) leukemia): 3.2 µM
TGI (HL-60(TB) leukemia): 6.8 µM
GI50 (SF-295 CNS): 1.69 µM
TGI (SF-295 CNS): 4.14 µM
GI50 (SF-268 CNS): 3.4 µM
TGI (SF-268 CNS): 61.3 µM
GI50 (SR leukemia): 1.89 µM
TGI (SR leukemia): 3.7 µM
GI50 (HT29 colon): 3.01 µM
TGI (HT29 colon): 10.2 µM
GI50 (EKVX NSCLC): 2.82 µM
TGI (EKVX NSCLC): 13.5 µM
GI50 (U251 glioblastoma): 2.15 µM
TGI (U251 glioblastoma): 12.3 µM
GI50 (HCT-15 colon): 4.25 µM
TGI (HCT-15 colon): 24 µM
GI50 (SNB-19 CNS): 4.05 µM
TGI (SNB-19 CNS): > 100 µM
GI50 (IGROV1 ovarian): 2.02 µM
TGI (IGROV1 ovarian): 6.92 µM
GI50 (T-47D breast): 2.63 µM
TGI (T-47D breast): 13.7 µM
GI50 (MDA-MB-435 melanoma): 4.37 µM
TGI (MDA-MB-435 melanoma): 72.8 µM
GI50 (SK-MEL-28 melanoma): 4.04 µM
TGI (SK-MEL-28 melanoma): 19.5 µM
GI50 (HOP-62 NSCLC): 2.39 µM
TGI (HOP-62 NSCLC): 10.8 µM
GI50 (TK-10 renal): 2.87 µM
TGI (TK-10 renal): 24.4 µM
GI50 (CAKI-1 renal): 2.16 µM
TGI (CAKI-1 renal): > 100 µM
GI50 (RXF 393 renal): 0.183 µM
TGI (RXF 393 renal): 2.06 µM
GI50 (MDA-MB-468 breast): 1.71 µM
TGI (MDA-MB-468 breast): 6.44 µM
GI50 (SNB-75 CNS): 0.29 µM
TGI (SNB-75 CNS): 3.53 µM
GI50 (UACC-257 melanoma): 3.02 µM
TGI (UACC-257 melanoma): 10.3 µM
GI50 (DU-145 prostate): 4.9 µM
TGI (DU-145 prostate): 40.2 µM
GI50 (OVCAR-3 ovarian): 3.15 µM
TGI (OVCAR-3 ovarian): 11.4 µM
GI50 (HCT-116 colon): 2.79 µM
TGI (HCT-116 colon): 12.3 µM
GI50 (SK-MEL-5 melanoma): 3.28 µM
TGI (SK-MEL-5 melanoma): 15.7 µM
GI50 (MCF7 breast): 2.07 µM
TGI (MCF7 breast): 12.8 µM
GI50 (NCI-H460 NSCLC): 2.48 µM
TGI (NCI-H460 NSCLC): 13.7 µM
GI50 (BT-549 breast): 1.03 µM
TGI (BT-549 breast): 9.21 µM
GI50 (SF-539 CNS): 0.305 µM
TGI (SF-539 CNS): 2.05 µM
GI50 (MDA-MB-231 breast): 3.4 µM
TGI (MDA-MB-231 breast): > 100 µM
GI50 (NCI-H226 lung): 0.344 µM
TGI (NCI-H226 lung): 14.3 µM
GI50 (HS 578T breast): 0.575 µM
TGI (HS 578T breast): 2.44 µM
GI50 (NCI-H23 lung): 2.51 µM
TGI (NCI-H23 lung): 14.4 µM
GI50 (SK-OV-3 ovarian): 2.42 µM
TGI (SK-OV-3 ovarian): 10.8 µM
GI50 ([…]-0 renal): 1.99 µM
TGI (786-0 renal): 4.95 µM
GI50 (A498 renal): 2.36 µM
TGI (A498 renal): 6.03 µM
GI50 (PC-3 prostate): 2.92 µM
TGI (PC-3 prostate): 9.54 µM
GI50 (OVCAR-5 ovarian): 4.31 µM
TGI (OVCAR-5 ovarian): 79.4 µM
GI50 (HOP-92 NSCLC): 2.03 µM
TGI (HOP-92 NSCLC): 12.4 µM
GI50 (SK-MEL-2 melanoma): 2.78 µM
TGI (SK-MEL-2 melanoma): 7.22 µM
GI50 (OVCAR-4 ovarian): 2.26 µM
TGI (OVCAR-4 ovarian): 37.6 µM
GI50 (UACC-62 melanoma): 6.3 µM
TGI (UACC-62 melanoma): 18.9 µM
GI50 (SN12C renal): 2.51 µM
TGI (SN12C renal): > 100 µM
GI50 (A549 NSCLC): 3.42 µM
TGI (A549 NSCLC): > 100 µM
GI50 (MOLT-4 leukemia): 1.62 µM
TGI (MOLT-4 leukemia): 3.09 µM
GI50 (UO-31 renal): 1.73 µM
TGI (UO-31 renal): 7.66 µM
GI50 (OVCAR-8 ovarian): 4.79 µM
TGI (OVCAR-8 ovarian): 79.6 µM
GI50 (SW-620 colon): 18 µM
TGI (SW-620 colon): > 100 µM
GI50 (K-562 leukemia): 1.81 µM
TGI (K-562 leukemia): 3.65 µM
GI50 (NCI-H322M lung): 3.3 µM
TGI (NCI-H322M lung): 20.7 µM
GI50 (MALME-3M melanoma): 4.55 µM
TGI (MALME-3M melanoma): 15.2 µM
GI50 (COLO 205 colon): 11.7 µM
TGI (COLO 205 colon): 93.6 µM
GI50 (KM12 colon): 3.4 µM
TGI (KM12 colon): 13.2 µM
GI50 (M14 melanoma): 4.6 µM
TGI (M14 melanoma): 47.3 µM
